The values that follow come from paper PMC4193777 (PLoS ONE, 2014).

Assay [1] addresses T1, FPR2 (Homo sapiens, UniProt P25090).
T1 construct: Human peripheral blood neutrophils were isolated from buffy coats from healthy blood donors; endogenous in cells; host or cells: primary human peripheral blood neutrophils from buffy coats of healthy donors
T1 sequence (P25090 1-351): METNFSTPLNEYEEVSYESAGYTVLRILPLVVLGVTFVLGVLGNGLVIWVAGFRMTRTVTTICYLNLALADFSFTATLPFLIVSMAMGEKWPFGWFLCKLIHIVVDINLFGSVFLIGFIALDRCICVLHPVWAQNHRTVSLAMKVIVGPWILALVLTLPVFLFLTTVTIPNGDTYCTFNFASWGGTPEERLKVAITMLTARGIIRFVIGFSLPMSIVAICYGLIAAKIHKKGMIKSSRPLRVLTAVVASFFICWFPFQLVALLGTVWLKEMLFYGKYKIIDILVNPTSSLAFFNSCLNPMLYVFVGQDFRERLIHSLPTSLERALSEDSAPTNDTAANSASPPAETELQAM
As to the kind of experiment: Neutrophil NADPH-oxidase activity (superoxide release), direct activation of naive cells. In kind it is cell-based. On the procedure:
(§1) Human peripheral blood neutrophils were isolated from buffy coats from healthy blood donors using dextran sedimentation and Ficoll-Paque gradient centrifugation as described. The remaining erythrocytes were disrupted by hypotonic lysis, the neutrophils were washed twice, resuspended in KRG, and stored on melting ice until use. This isolation procedure permits cells to be purified with minimal granule mobilization.
The NADPH-oxidase activity was determined using isoluminol-enhanced chemiluminescence (CL), [27]. The CL activity was measured in a six-channel Biolumat LB 9505 (Berthold Co., Wildbad, Germany), using disposable 4-ml polypropylene tubes with a 900 µl reaction mixture containing 10^5 cells, isoluminol (2×10^−5 M) and HRP (2 U). The tubes were equilibrated in the Biolumat for 5 min at 37°C, after which the stimulus (100 µl) was added and the light emission was recorded continuously. Receptor desensitized cells were defined as naïve (non-desensitized) cells that had first been stimulated with a receptor specific agonist and returned to baseline after the resulting release of superoxide before a second stimulation. When reactivation experiments were performed with antagonists, the antagonists were added to the CL reaction mixture 1 min before the second stimulation. For studies with signaling inhibitors, cells were incubated with inhibitors at 37°C for 15 min before agonist addition. Control cells received no treatment but were incubated under the same conditions.
Data analysis was performed using GraphPad Prism 6.0 (Graphpad Software, San Diego, CA, USA).
Representative experiments out of more than five are shown and an arrow indicates the time point for agonist addition. Abscissa: Time of study (min); ordinate: Superoxide production (Mcpm).

Assay [2] deals with T1, FPR2. Briefly: Homologous desensitization of neutrophils (superoxide). In kind it is cell-based. As to conditions: first F2Pal10 (500 nM) then WKYMVM (40 nM), or reversed order, five minutes apart. On the procedure: as §1
The NADPH-oxidase activity was determined using isoluminol-enhanced chemiluminescence (CL), [27]. The CL activity was measured in a six-channel Biolumat LB 9505 (Berthold Co., Wildbad, Germany), using disposable 4-ml polypropylene tubes with a 900 µl reaction mixture containing 10^5 cells, isoluminol (2×10^−5 M) and HRP (2 U). The tubes were equilibrated in the Biolumat for 5 min at 37°C, after which the stimulus (100 µl) was added and the light emission was recorded continuously. […]
Figure 1 The F2Pal10 pepducin specifically activates FPR2. A. Primary human neutrophils were activated by F2Pal10 (500 nM) in the absence (solid line) or presence of the receptor specific inhibitor PBP10 (FPR2 specific inhibitor; 1 µM final concentration, dashed line) or the FPR1 antagonist cyclosporin H (CysH; 1 µM final concentration, dotted line) and the release of superoxide anions was recorded continuously. […] The release of superoxide anions was recorded continuously. […]

The next assay deals with neutrophils. Briefly: Calcium mobilization in neutrophils. It is filed as cell-based, human. To be noted: WKYMVM 100 nM or F2Pal10 500 nM. The protocol:
Neutrophils or transfected HL-60 cells at a density of 5×10^7 cells/ml in KRG containing 0.1% BSA were loaded with 5 µM FURA 2-AM for 30 minutes in the dark at room temperature. The cells were then diluted 1/2 in RPMI 1640 culture medium without phenol red (PAA Laboratories GmbH, Pasching, Austria) and centrifuged. Finally, the cells were washed once with KRG and resuspended in the same buffer at a density of 2×10^7/ml. Calcium measurements were carried out in a PerkinElmer fluorescence spectrophotometer (LC50), with excitation wavelengths of 340 nm and 380 nm, an emission wavelength of 509 nm, and slit widths of 5 nm and 10 nm, respectively. The transient rise in intracellular calcium is presented as the ratio of fluorescence intensities (340 nm: 380 nm) detected. The measuring cuvette contained catalase (2000 U) to counteract inactivation of the chemoattractants by the MPO-H2O2-system. […] The relative calcium level was expressed as a ratio between Fluo-3 and Fura Red (FL-1/FL-3) fluorescence over time.
Figure 5 F2Pal10 induces pertussis toxin sensitive superoxide production and triggers mobilization of calcium from intracellular stores. […] Abscissa, time of study (sec); ordinate, fluorescence (arbitrary unit). […]
(Calcium assays in cells follow changes in intracellular calcium, usually with a dye or a luminescent sensor.)

Regarding `CSCC[C@H](NC(=O)[C@@H](NC(=O)[C@H](CCSC)NC(=O)[C@H](Cc1ccc(O)cc1)NC(=O)[C@H](CCCCN)NC(=O)[C@@H](N)Cc1c[nH]c2ccccc12)C(C)C)C(N)=O` [WKYMVM], on FPR2 [1] (first stimulation of naive neutrophils, 10 nM WKYMVM≈100 nM F2Pal10), the “concentration inducing comparable sub-maximum response, pair 1” value amounted to 10 nM. Also, on FPR2 [1] (first stimulation of naive neutrophils, 25 nM WKYMVM≈250 nM F2Pal10), the “concentration inducing comparable sub-maximum response, pair 2” value is on record as 25 nM. The “concentration inducing comparable sub-maximum response, pair 3” value at FPR2 [1] (first stimulation of naive neutrophils, 40 nM WKYMVM≈500 nM F2Pal10) stood at 40 nM. Besides, at FPR2 [1] (upon stimulation of neutrophils), the “time to peak of radical production” value is recorded as “around one”. Also, on FPR2 [2], the “desensitization to second FPR2 agonist” value is “vice versa”. Further, in the assay on neutrophils (Fluo-3/Fura Red, without EGTA), the “rise in cytosolic Ca2+ in neutrophils” value is listed as “a rise in the cytosolic concentration of Ca^2+ was induced”. Further, the “rise in cytosolic Ca2+ in neutrophils, with EGTA” value with neutrophils (extracellular Ca2+ removed by EGTA (2 mM)) is “The rise was evident also when extracellular Ca^2+ was removed”.
